Legend:
[1] = system: MCF7-WT cells (WT ER, MCF7.6); assay: In vitro proliferation (viability) assay, CellTiter-Glo, MCF7-WT; format: cell-based; settings: Homo sapiens, CTG on day 6 compared to day 0, read-out: WT ER CTGlo MCF7.6 GI50 Mean
Protocol: (§1) MCF7 BUS cells (Coser, et al., (2003) PNAS 100(24): 13994-13999) were maintained in Dulbecco's Modified Eagle Medium supplemented with 10%/o FBS, 4 mM L-glutamine and 1× non-essential amino acids. Lenti-X 293T cells (Clontech, Cat #632180) were routinely cultured in Dulbecco's Modified Eagle Medium supplemented with 10% FBS.
(§2) The QuikChange II XL Site-Directed Mutagenesis Kit (Agilent Technologies, Cat #200523) was used to generate Y537S, Y537C, Y537N and D538G mutations within the ERα exon 8. […]
(§3) MCF7-WT and —Y537S cells were seeded at 1500 cells/well in black-walled 96-well plates (assay plates. Costar, Cat #3904). In parallel, cells were also seeded in a separate 96-well plate (8 wells/cell line, control plate) for which a CTG (CellTiter-Glo® Luminescent Viability Assay, Promega, Cat #G7572) was measured the following day (day 0 reading). The day 0 reading was used for the GI50 calculation at the termination of the experiment. […] CTG was measured and compared to day 0 readings from control plate to assess GI50.

[2] = system: MCF7-Y537S cells (Y537S ER, MCF7.7); assay: In vitro proliferation (viability) assay, CellTiter-Glo, MCF7-Y537S; format: cell-based; settings: Homo sapiens, CTG on day 6 compared to day 0, read-out: Y537S ER CTGlo MCF7.7 GI50 Mean
Protocol: as §1, §2, §3

[3] = system: MCF7 cells with ectopic expression of ERα Y537S/N/C, D538G; assay: In vitro proliferation of wild-type and mutant ER-bearing MCF7 lines with clinical therapies (FIG. 1); format: cell-based, human
Protocol: 48 h post-transfection, virus containing media was filtered and added to MCF7 cells in the presence of 8 μg/ml polybrene overnight. Two days following infection, cells were placed under selection with 10 μg/ml blasticidin for 2 weeks for stable expression.
In parallel, cells were also seeded in a separate 96-well plate (8 wells/cell line, control plate) for which a CTG (CellTiter-Glo® Luminescent Viability Assay, Promega, Cat #G7572) was measured the following day (day 0 reading). The day 0 reading was used for the GI50 calculation at the termination of the experiment. The day following seeding, compounds were added to assay plates. Briefly, a 1:4 serial dilution was prepared in DMSO at 200× final concentration for a total of 10 concentrations (9 dilutions containing compound and one is DMSO only). Serially diluted compounds were pipetted into medium to prepare a compound-medium mix at 10× final concentration. 10 μl of compound-medium mix was added to MCF7-WT and —Y537S cells at 3 wells/concentration (triplicate for each concentration). On day 3, media-compound was removed and replaced with fresh media/compound as described above. On day 6. CTG was measured and compared to day 0 readings from control plate to assess GI50.

| Structure (SMILES) | GI50 [1] | GI50 [2] | Resistance of ERα mutant-bearing MCF7 lines relative to control lines [3] |
| --- | --- | --- | --- |
| CC/C(=C(/c1ccc(OCCNC/C=C/C(=O)N(C)C)cc1)c1ccc2[nH]ccc2c1)c1ccccc1 [Compound 102, (E)-4-(2-(4-((E)-1-(1H-indol-5-yl)-2-phenylbut-1-enyl)phenoxy)ethylamino)-N,N-dimethylbut-2-enamide] | 1.75 nM | 27.5 nM | – |
| C[C@]12CC[C@@H]3c4ccc(O)cc4C[C@@H](CCCCCCCCC[S+]([O-])CCCC(F)(F)C(F)(F)F)[C@H]3[C@@H]1CC[C@@H]2O (some centres unmarked) [fulvestrant] | – | – | phenotypic resistance |
| O=C(c1ccc(OCCN2CCCCC2)cc1)c1c(-c2ccc(O)cc2)sc2cc(O)ccc12 [raloxifene] | – | – | phenotypic resistance |
| CC/C(=C(\c1ccccc1)c1ccc(OCCN(C)C)cc1)c1ccccc1 [tamoxifen] | – | – | phenotypic resistance |

Source: patent publication US20190337921A1, “TETRASUBSTITUTED ALKENE COMPOUNDS AND THEIR USE” (Eisai R&D Management Co., Ltd., priority 2016, published 2019)
